{
  "source": "patent US11730734B2",
  "about": "“Use of ATR and Chk1 inhibitor compounds” (University of Florida Research Foundation, Incorporated, priority 2016, dated 2023)",
  "key": {"[1]": {"test_system": "ATR", "assay": "ATR activation (pATR S428 immunofluorescence) in HSV-1 infected U2OS cells", "assay_type": "cell-based", "conditions": "for ATR activation (pATR labeling): 5 h", "experimental": "(§1) Cells were plated at 5×10^5 cells per well in 6-well plates and the following morning incubated with inhibitors. Following 1 h pre-incubation with inhibitors, cells were infected with HSV-1 at an MOI=0.1 in a volume of 200 uL for 1 h, viral inoculum removed, and cells overlaid with media containing fresh inhibitors, and cultured for 48 h. Following 48 h, cells and supernatant were harvested by scraping, separated into two Eppendorf tubes, and centrifuged at 10,000×g for 40 min. The cell pellet from one tube was used for extraction of DNA (DNazol according to manufacturer's recommendation, ThermoFisher Sci. catalog no. 10503027) and the second pellet was re-suspended in 200 uL serum-free MEM, freeze-thawed 3×, and virus titered on rabbit skin cells. For HSV-1 titering, rabbit skin cells were plated at 150,000 cells/well of 24-well plates and the following day infected with 10-fold serial dilutions of virus harvested from antiviral experiments. Cells were incubated for 48 h, stained with 1% crystal violet solution, and plaques counted from three separate wells for each experimental sample. Q-PCR was conducted using 20 ng input DNA, TaqMan® Fast Universal PCR 2× Master Mix (Applied Biosystems, catalog no. 4352041) along with TaqMan probes and target-specific primers (Applied Biosystems, Assays by Design part no. 4331348) against HSV-1 polymerase. Samples were run on a StepOnePlus Real-Time PCR System (Applied Biosystems) using fast cycling: denaturation at 95° C. for 20 sec followed by 40 cycles at 95° C. for 1 sec and 60° C. for 20 sec. Additional experimental compounds were also tested as follows: […] Cyclohexamide (Sigma, catalog no. C7698) or DMSO vehicle was added to the overlay media at 50 ug/mL and the infection allowed to proceed for 5 h. (2) For replication inhibition, phosphonoacetic acid (PAA) was added at time of virus adsorption and included in overlay media at 400 ug/mL for 5 h. (3) A final [3 mM] hydroxyurea was added at the time of cell plating and incubated for 18 h. […]"}, "[2]": {"test_system": "viral replication centers", "assay": "Viral replication center formation / maturation (immunofluorescence)", "assay_type": "cell-based, HSV-1", "conditions": "for replication center formation: 5 h", "experimental": "as §1"}, "[3]": {"test_system": "17+HSV-1", "assay": "Antiviral assay, HSV-1 titering (viral titer / PFU on rabbit skin cells)", "assay_type": "cell-based", "conditions": "U2OS cells, 17+HSV-1 MOI=0.1, 48 h; ATR inhibitors 10 μM, Chk1 inhibitors 250 nM, aphidicolin 4 μM, KU55933 10 μM, Chk2 inhibitor II 5 μM, NU7441 1 μM"}, "[4]": {"test_system": "Chk1", "assay": "Chk1 activation (pChk1 S345 Western blot) in HSV-1 infected cells", "assay_type": "cell-based", "experimental": "5×10^5 cells were plated on 6-well plates and infected the following day with 17syn+(MOI=10). At the indicated times, cells were lysed in buffer containing 1% NP-40, 150 mM sodium chloride, 20 mM Tris-HCL pH 8.0, 2 mM EDTA, and 5% glycerol supplemented with phosphatase and protease inhibitor cocktails (Roche, PhosSTOP tablets; catalog no. 04906837001; ThermoFisherSci., Halt Protease Inhibitor Cocktail, catalog no. 1862209). For SDS-PAGE, 20 ug of protein was mixed with NuPAGE 4×LDS sample buffer (ThermoFisher Sci., catalog no. NP0007) along with NuPAGE Sample Reducing Agent (ThermoFisher Sci., catalog no. NP0004) and run on 4-12% Bis-Tris NuPAGE gels (ThermoFisher Sci.) with NuPAGE MOPS SDS running buffer (ThermoFisher Sci., catalog no. NP000102). Gels were transferred onto 0.22 μm PVDF in Towbin buffer (0.2 M Glycine, 25 mM Tris Base) containing 20% MeOH for 2 h under constant voltage (30V), the membrane blocked with 5% non-fat dry milk (NFDM)-TBST (20 mM Tris-HCL pH 7.4, 150 mM NaCl, 0.1% Tween-20) and probed with antibodies diluted in 1% NFDM-TBST overnight at 4° C. For ATR and ATM western blots, samples were processed as above except DTT (50 mM, Cell Signaling, catalog no. 7016) was used as the reducing agent and samples were run on NuPAGE Novex 3-8% Tris-acetate gels (ThermoFisher Sci.) with NuPAGE Tris-acetate SDS running buffer (ThermoFisher Sci., catalog no. LA0041). […]"}, "[5]": {"test_system": "ICP4", "assay": "ICP4 expression by immunofluorescence in HSV-1 infected cells", "assay_type": "cell-based", "conditions": "VE-822 10 μM, 17+HSV-1 MOI=10, 5 h.p.i.", "experimental": "(§2) U2OS cells were plated onto coverslips at 75,000 cells per well of 24-well plates and the following day infected at an MOI=10 for the indicated times.\n(§3) Thereafter, cells were processed for immunofluorescence in one of two ways that incorporated an Fc receptor blocking step: (1) cells were fractionated in situ by pre-extraction following previously published procedures; briefly, cells were incubated in Cytoskeleton Buffer (CB; 100 mM PIPES, 300 mM sucrose, 100 mM NaCl, 3 mM MgCl2, 1 mM EGTA) for 5 min on ice followed by incubation in Cytoskeleton Stripping Buffer (CSK; 10 mM Tri-HCL pH 7.4, 10 mM NaCl, 3 mM MgCl2, 1% Tween-40, 1% Tween-20, 0.5% sodium deoxycholate) for 5 min on ice. Cells were then washed 3× with PBS and fixed with Streck fixative (150 mM 2-bromo-2-nitro-1,3-propanediol, 108 mM diazolidinyl urea, 10 mM sodium citrate, 50 mM EDTA) for 30 min at RT, washed with PBS, and permeabilized with 0.5% Triton X-100 in 100 mM Tris-HCL pH 7.4 plus 50 mM EDTA for 15 min at RT. Cells were then incubated sequentially with Fc Receptor Blocker (Innovex Biosciences, catalog no. NB309) for 30 min at RT followed by blocking buffer (5% goat serum, 0.1% NP-40, 20 mM Tris-HCL pH 7.4, 150 mM NaCl) for 30 min at RT. (2) In some cases cells were fixed in 3.7% paraformaldehyde in PBS for 5 min at RT followed by blocking with Fc Receptor Blocker and blocking buffer as above. […]"}, "[6]": {"test_system": "ICP8", "assay": "ICP8 expression in HSV-1 infected cells (data not shown)", "assay_type": "cell-based", "conditions": "VE-822 10 μM", "experimental": "as §2, §3"}, "[7]": {"test_system": "Chk1", "assay": "Chk1 activation following KD6 infection of permissive Vero cell line K5", "assay_type": "cell-based", "conditions": "KD6 infection of Vero cell line K5, cycloheximide"}},
  "note": "Entries after “also recorded” stand apart in the source; their conditions may differ.",
  "data": [
    {"compound": "O=C(O)CP(=O)(O)O", "note": "[PAA, phosphonoacetic acid]", "values": [
      {"measurement": "ATR activation (pATR labeling)", "setting": "[1]; PAA 400 ug/mL from virus adsorption", "value": "partially suppressed ATR activation; also recorded: partial suppression; also recorded: partially blocks pATR labeling"},
      {"measurement": "replication center formation", "setting": "[2]; PAA 400 ug/mL", "value": "retards replication center formation"}
    ]},
    {"compound": "Cn1cc(-c2[nH]c3cc(NC(=O)[C@H](N)C4CCCCC4)cc4c3c2C=NNC4=O)cn1", "note": "[PF477736]", "values": [
      {"measurement": "viral titers (HSV-1 PFU, virus production)", "setting": "[3]", "value": "significantly impact virus production"}
    ]},
    {"compound": "CNCc1ccc(-c2cc(-c3nc(-c4ccc(S(=O)(=O)C(C)C)cc4)cnc3N)on2)cc1", "note": "[VE-822]", "values": [
      {"measurement": "Chk1 activation / phosphorylation", "setting": "[4]; VE-822 10 μM, 17+HSV-1 MOI=10, Western blot", "value": "Chk1 activation was also blocked; also recorded: blocks activation of both ATR and Chk1; also recorded: blocks phosphorylation of Chk1"},
      {"measurement": "expression of ICP4", "setting": "[5]", "value": "blocked expression of ICP4; also recorded: blocking expression of both ICP4 and ICP8"},
      {"measurement": "ATR activation (pATR)", "setting": "[1]; VE-822 10 μM, 17+HSV-1 MOI=10, 5 h.p.i.", "value": "blocked ATR activation; also recorded: blocks activation of both ATR and Chk1"},
      {"measurement": "maturation of replication centers", "setting": "[2]; VE-822, during HSV-1 infection", "value": "blocks maturation of replication centers"},
      {"measurement": "expression of ICP8", "setting": "[6]", "value": "blocked expression; also recorded: blocking expression of both ICP4 and ICP8"}
    ]},
    {"compound": "C[C@@]1(CO)[C@H](O)CC[C@@]2(C)[C@H]1CC[C@H]1C[C@@H]3C[C@@]12CC[C@]3(O)CO", "note": "[aphidicolin]", "values": [
      {"measurement": "viral titers (HSV-1 PFU, virus production)", "setting": "[3]", "value": "significantly inhibit viral titers; also recorded: significantly impact virus production"}
    ]},
    {"compound": "C[C@@H]1C[C@@H]([C@H](O)CC2CC(=O)NC(=O)C2)C(=O)[C@@H](C)C1", "note": "[cycloheximide]", "values": [
      {"measurement": "Chk1 activation", "setting": "[4]; cycloheximide", "value": "complete suppression"},
      {"measurement": "ATR activation (pATR labeling)", "setting": "[1]; cycloheximide 50 ug/mL in overlay media", "value": "completely blocked ATR activation; also recorded: complete suppression; also recorded: completely suppresses pATR labeling"},
      {"measurement": "Chk1 activation", "setting": "[7]", "value": "blocked"},
      {"measurement": "replication center formation", "setting": "[2]; cycloheximide 50 ug/mL", "value": "retards replication center formation"}
    ]}
  ]
}
